The results in this text go back to patent US7906510B2, “Amide derivative and pharmaceutical composition containing the same” (Dainippon Sumito Pharma Co., Ltd., priority 2008, dated 2011).

The term melting point denotes the temperature of the solid-liquid transition. By IC50 is commonly meant the point on the concentration scale where inhibition reaches its midpoint.

For one series, the system named is Male Slc-ddy mice. The series can be described thus: Mouse defecation assay. The format is in vivo. Details: key: −: No Effect; +: Moderately Improved (p<0.05); ++: Significantly Improved (p<0.01). The following applies: 3 mg/kg orally; stool weight 30, 60 and 120 minutes after administration; Dunnett assay vs control. The method, then: Male Slc-ddy mice (body weight 25 to 30 g) were used and allowed to ingest food and water ad libitum until commencement of experiments.
A group of 25 mice was divided into 5 groups, which 5 mice each per group were respectively transferred to fasting cages to adjust to new environments for about 1 hour. Then, each mouse was orally administered 3 mg/kg suspension of a test compound in 0.5% tragacanth solution to measure each stool weight of each group 30, 60, and 120 minutes after oral administration.
Efficacies were evaluated by Dunnett assay between test compounds and control.

A further series concerns the target T1, 5-HT4 receptor (Cavia porcellus, UniProt O70528).
T1 construct: the mixture was suspended to give receptor membrane preparations; from tissue; host or cells: guinea pig (Slc-Hartley) brain striatum membranes
The series is described as follows: Serotonin 4 (5-HT4) receptor binding assay. Details: species or system guinea pig. Particulars: inhibition of specific binding of 0.1 nM [3H]-GR113808; guinea pig striatum membrane preparations; 37° C., 30 minutes; read-out: IC50. The method, then: 5-HT4 receptor binding assay and preparations of receptor membrane preparations were carried out according to a method of Grossman et al. [see British J. Pharmacol., (1993) 109, 618].
Slc-Hartley guinea pigs (body weight 300 to 400 g) were decapitated to remove brain rapidly, and striatum was isolated. To the obtained tissues were added fifteenfold of Hepes buffer (50 mM, pH7.4, 4° C.), and the mixture was homogenized by Teflon® homogenizer and centrifuged at 48,000×g (4° C.) for 15 minutes. To the resulting precipitate was added Hepes buffer (1 ml) to 30 mg by wet weight of tissues, and the mixture was suspended to give receptor membrane preparations.
0.1 nM [^3H]-GR113808 {chemical name: [1-[2-(methylsulfonylamino)ethyl]-4-piperidinyl]methyl 1-methylindole-3-carboxylate}, receptor membrane preparations, and Hepes buffer (50 mM, pH7.4, 4° C., 1 ml) containing test compounds or 30 μM serotonin were placed in an assay tube, and incubated at 37° C. for 30 minutes. On quenching the reaction, the mixture was rapidly filtered on whatman GF/B filter, which was presoaked in 0.1% polyethyleneimine for 1 hour, by using Brandel cell Harvester, and washed with ice-cooled 50 mM Tris-HCl (pH7.7, 4 ml) three times. To the filter after filtration was added ACS II scintillator, and then a radioactivity was determined by a liquid scintillation counter.
50% inhibition concentrations (IC50) were determined from inhibition rates of test compounds to specific bindings which were obtained by subtracting nonspecific bindings from total binding amounts of [^3H]-GR113808.

In series [1] the test system is Male Slc-Hartley guinea pigs. The series can be described thus: Electrocardiographic assay for guinea pig. The following applies: dose extending 5% of QTc; i.v. infusion for 15 minutes, anesthetized guinea pigs, ECG lead II.
Protocol: (§1) Male Slc-Hartley guinea pigs were anesthetized to determine electrocardiogram (lead II) under artificial respiration. A drug solution was continuously and intravenously infused via cannula indwelled in cervical veins at a flow rate: 0.2 ml/kg/min for 15 minutes.
The test system of series [2] is Male Slc-Hartley guinea pigs. The following applies: guinea pig, in vivo, iv.
Protocol: as §1

The structures appear in SMILES notation. Structures can show the parent of a compound that is named as a salt. Where two headings read alike, the source gives them in different places.

T1 sequence (O70528 whole entry): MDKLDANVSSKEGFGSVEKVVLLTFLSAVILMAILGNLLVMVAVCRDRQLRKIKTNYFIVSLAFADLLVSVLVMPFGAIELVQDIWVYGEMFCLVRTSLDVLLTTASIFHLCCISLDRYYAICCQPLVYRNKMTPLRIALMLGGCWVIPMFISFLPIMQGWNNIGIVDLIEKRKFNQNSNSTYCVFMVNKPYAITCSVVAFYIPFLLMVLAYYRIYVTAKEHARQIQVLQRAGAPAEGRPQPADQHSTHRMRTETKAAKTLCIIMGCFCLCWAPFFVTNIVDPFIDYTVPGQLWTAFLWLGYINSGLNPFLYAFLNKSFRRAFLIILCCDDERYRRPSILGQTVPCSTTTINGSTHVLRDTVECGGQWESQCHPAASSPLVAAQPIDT

Molecule `CCOc1cc(N)c(Br)cc1C(=O)NCC1CN(CC2CCN(C(=O)OC(C)(C)C)CC2)CCO1` (centres unmarked) (as salt: fumarate) [Example 11, 4-amino-5-bromo-N-[{4-[(1-(tert-butoxycarbonyl)-4-piperidinyl)methyl]-2-morpholinyl}methyl]-2-ethoxybenzamide 1.5 fumarate] registered a melting point of 171 to 172 °C. On the same count and under the same terms, with `COc1cc(N)c(Cl)cc1C(=O)NC[C@H]1CN(CC2CCN(C(=O)CO)CC2)CCO1` (as salt: hydrobromid) (hydrate or solvate) [Example 220, (S)-4-amino-5-chloro-N-[{4-[(1-hydroxyacetyl-4-piperidinyl)methyl]-2-morpholinyl}methyl]-2-methoxybenzamide hydrobromide 2 hydrate] the figure was 215 to 216 °C (dec.); with `COc1cc(N)c(Cl)cc1C(=O)NC[C@H]1CN(CC2CCN(C(=O)CO)CC2)CCO1` (as salt: hydrochloride) [Example 198, 4-amino-5-chloro-N-[{4-[(1-hydroxyacetyl-4-piperidinyl)methyl]-2-morpholinyl}methyl]-2-methoxybenzamide hydrochloride], 164 to 167 °C (dec.). In turn, `CCOc1cc(N)c(Cl)cc1C(=O)NCC1CN(CC2CCN(C(N)=O)CC2)CCO1` (centres unmarked) [Example 43, 4-amino-N-[{4-((1-carbamoyl-4-piperidinyl)methyl)-2-morpholinyl}methyl]-5-chloro-2-ethoxybenzamide] came in with a melting point of 201 to 207 °C.

In the case of `COc1cc(N)c(Cl)cc1C(=O)NCC1CN(CC2CCN(C(=O)N(C)C)CC2)CCO1` (centres unmarked) [Example 67, 4-amino-5-chloro-N-[{4-[(1-dimethylcarbamoyl-4-piperidinyl)methyl]-2-morpholinyl}methyl]-2-methoxybenzamide], the melting point lay in the range of 179 to 180 °C.

For the molecule `CCOc1cc(N)c(Cl)cc1C(=O)NC[C@H]1CN(CC2CCN(C(=O)N(C)C)CC2)CCO1` [Example 72], the melting point was 157 to 158 °C. For the same molecule, the Effect entry in the series with Male Slc-ddy mice is reported as “++”. In addition, at 5-HT4 receptor, the IC50 was found to be 9.04 nM. For the same molecule, the “ED5% (mg/kg,i.v.)” value in series [1] is above 30 mg/kg. `CCOc1cc(N)c(Cl)cc1C(=O)NCC1CN(CC2CCN(C(=O)OC)CC2)CCO1` (centres unmarked) [Example 93] gave a melting point of 175 °C. Besides, the IC50 on 5-HT4 receptor was found to be 9.36 nM. Regarding `CCOc1cc(N)c(Cl)cc1C(=O)NC[C@H]1CN(CC2CCN(C(=O)CO)CC2)CCO1` [Example 197], in the series with Male Slc-ddy mice, the Effect entry was “++”. Besides, the “ED5% (mg/kg,i.v.)” value in series [2] is above 30 mg/kg. Turning to `CCOc1cc(N)c(Cl)cc1C(=O)NC[C@H]1CN(CC2CCN(C(=O)N(C)OC)CC2)CCO1` [Example 205, (S)-4-amino-5-chloro-2-ethoxy-N-[{4-[(1-(N-methoxy-N-methylcarbamoyl)-4-piperidinyl)methyl]-2-morpholinyl}methyl]benzamide], the melting point was 127 to 129 °C. Consider `CCOc1cc(N)c(Cl)cc1C(=O)NC[C@H]1CN(CC2CCN(C(=O)N3CCC3)CC2)CCO1` [Example 208, (S)-4-amino-N-[{4-[(1-(1-azetidinecarbonyl)-4-piperidinyl)methyl]-2-morpholinyl}methyl]-5-chloro-2-ethoxybenzamide], for which the melting point fell in the range of 166 to 168 °C. For the same molecule, the IC50 at 5-HT4 receptor was found to be 4.79 nM. Take `CCOc1cc(N)c(Cl)cc1C(=O)NCC1CN(CC2CCN(C#N)CC2)CCO1` (centres unmarked) [Example 211, 4-amino-5-chloro-N-[{4-[(1-cyano-4-piperidinyl)methyl]-2-morpholinyl}-methyl]-2-ethoxybenzamide]: the melting point was 197 °C (dec.).
